The text below walks through data of paper PMC5537305, “Photo-enhanced Aqueous Solubilization of an Azo-compound” (Scientific Reports, 2017).

Holding throughout (assay type): physicochemical
A short description of series [1]: Aqueous solubilization in 1/15 M phosphate buffer (pH 7.4) under UV, visible light or dark, with cis ratio in solution by HPLC. The protocol: (§1) Table S3. Cis ratio and aqueous solubilization of 3 under UV irradiation, under visible light irradiation, and in […]
(§2) Compound 3 was shaken at 37 °C under UV irradiation, under visible light irradiation, and in the dark. UV irradiation was performed with a mercury lamp (0.5 mW/cm2). Cis ratio in the aqueous solution was evaluated from the peak areas in HPLC immediately after filtration.
Table S4. Aqueous solubilization and cis ratio of 3 under irradiation at various wavelengths through filters of […]
Illumination was performed with a xenon lamp using repeated cycles of irradiation and shaking (5000 flashes, then shaking for 10 sec) through filters of various bandwidths at room temperature (20-22 °C) for 1 h. The cis ratio in the aqueous solution was evaluated by HPLC immediately after filtration, based on peak area.
Table S5. Aqueous solubilization of 3 under UV irradiation at various intensity levels.
Sample irradiation was conducted using 365 nm LED light (max light intensity: 290 mW/cm2) at 37 °C for 1 […]
Sample irradiations were conducted with the white light through a filter cutting off wavelengths below 560 nm, or with 365 nm LED light (344 mW/cm2) at 37 °C for 1 h.
Table S7. Aqueous dissolution of UV-irradiated crystals of 3 measured in the dark, and the cis ratio contained […]
Crystals of 3 were irradiated with 365 nm LED light (344 mW/cm2) at 37 °C for 3 h.
The UV-irradiated crystals and unirradiated crystals were each shaken in phosphate buffer in the dark at 37 °C for 1 h.
Physicochemical properties […]
Compound 3 (about 0.2 mg) was ground and taken up in 1/15 M phosphate buffer (pH 7.4, 1.0 mL) in a 10 mL glass tube. The suspension was incubated under ultrasound irradiation for 10 min, and shaken in a temperature controllable incubator located in a dark room for the indicated time at the indicated temperature.
With shaking on a plate shaker, a sample was irradiated with a 365 nm mercury lamp (4 W, UVP compact […]
white LED light (5 W, Nikki Trading Corp., NLSS05BM, 68 and 54 mW/cm2 at 450 and 540 nm, respectively) through a filter cutting off wavelengths below 560 nm (Atto Corp. YA-3). Irradiation was done from the top of the sample glass tube. Then, the suspension was filtered through a Millipore Millex-LG (0.20 […]
For irradiation at various UV wavelengths, 3 (about 0.1 mg) was ground and taken up in 1/15 M phosphate buffer (pH 7.4, 0.2 mL) in a well of a 96-well white plate. Illumination over a range of wavelength from 355-540 nm was performed using a plate reader EnVision equipped with a xenon flash lamp (35 W, 500 Hz), with excitation filters of appropriate bandwidths.

The nature of series [2]: Aqueous solubility of stilbenes 1 and 2 in phosphate buffer. Particulars: for solubility at 24 h: 20 °C, aqueous buffer, thermodynamic from solid, 20 °C for 24 h.
Text: First, we synthesized cis- and trans-stilbene analogs 1 and 2 as models for cis- and trans-azobenzenes, respectively (Fig. 1, Fig. S1). As expected, cis-1 was 14 times more soluble than trans-2 in phosphate buffer (Table S1). To confirm the putative mechanism of the higher solubility of the cis isomer, the melting point and LogP ow were examined as parameters of intermolecular interaction and hydrophobicity, respectively. The order of lower melting points (cis < trans) was the same as the order of higher aqueous solubility (cis > trans). As for hydrophobicity, the LogP ow values of 1 and 2 were almost the same. […] Therefore, the bent and twisted structure of cis-azobenzenes may result in greater aqueous solubility.
Table S1. Physicochemical properties of stilbenes 1 and 2.
Compound (µg/mL) Melting point (º C) LogPow λmax (nm)
Table S2. Photoinduced isomerization of 3
Light Time (min) cis ratio (%) trans ratio (%)
Compound 3 (10 µM) in a mixture of water and MeOH (1%) was successively exposed to white light and to a 365 nm mercury lamp (0.5 mW/cm2). The cis-trans ratio was calculated from the peak areas in HPLC.
as §1
Shake UV light Visible light Dark time cis ratio Solubilized 3 cis ratio Solubilized 3 cis ratio Solubility (%) (µg/mL) (%) (µg/mL) (%) (µg/mL)
as §2

The nature of series [3]: LogPow by HPLC method (OECD 117). Conditions: reversed-phase HPLC column (Inertsil ODS-4). As for the experimental part:
Inc. Inertsil ODS-4 reversed-phase column, 5 µm, 4.6 mm x 150 mm) eluted with a mobile phase consisting of H2O and CH3CN (45: 55) at a flow rate of 1.0 mL/min, with UV monitoring at 300 (for 1) or 330 (for 2) nm, at 37 ° C. The dead time t0 was measured with thiourea as the unretained compound. Each measurement was performed in duplicate, and the mean retention time (tR) was used for further calculations. The capacity factor of each compound, k = ((tR – t0) / t0), was calculated by extrapolation of the line fitted on the measured log k values of CH3CN−aqueous mobile phase. For the reference substrates (acetanilide, methyl benzoate, toluene, 4-phenylphenol, benzyl benzoate, dibenzyl), the calculated log k values were plotted against logPow values, and the absolute calibration curve was determined (LogP = 2.8279 x (log k) + 1.6035, R2=0.98). The LogP values of tested compounds were calculated using a previously prepared calibration curve from the tR […]
We observed the azobenzene compound using an optical microscope (BX-51P, Olympus). Bright-field images were captured in the reflection mode. For investigation of the existence of the polarization plane in the sample, the transmitted polarizing microscope mode under crossed-Nicol conditions was used. […] The intensity of illuminating UV light at the sample was monitored with an optical power meter […]

Molecules are shown by their SMILES. Values after ≈ are worked out from the molar mass of the structure shown.

For the molecule `O=C(O)c1cc(/N=N/c2ccc(S(=O)(=O)Nc3ccccn3)cc2)ccc1O` [Compound 4, Sulfasalazine, reference compound], in series [1] (UV 0.5 mW/cm2, 37 °C, 5 h), the “aqueous solubilization under UV irradiation vs in the dark” value is on record as “essentially the same”. Besides, the “increase of solubilization by UV irradiation” value in series [1] (more intense UV irradiation (344 mW/cm2)) is on record as 1.4 fold.

The solubility is how much of the substance goes into solution per volume. Read a high solubility as much dissolved substance. One may read the chromatographic logP as lipophilicity estimated from chromatographic retention. The molecule `COc1ccc(/C=C\c2ccc(OC)c(OC)c2)cc1OC` [cis-1] displayed a solubility at 24 h in series [2] of 0.673 µg/mL (≈ 2.24 µM). The “times more soluble than trans-2” value in series [2] (cis-1 vs trans-2) amounted to 14 times. The same molecule showed a chromatographic logP in series [3] of 3.3.

In turn, `COc1ccc(/C=C/c2ccc(OC)c(OC)c2)cc1OC` [trans-2] displayed a solubility at 24 h in series [2] of 0.0475 µg/mL (≈ 0.158 µM). The chromatographic logP in series [3] was 3.2.
